Results: patent US7592003B2, “Regulation of toll-like receptors on stem cells” (Oklahoma Medical Research Foundation, priority 2005, dated 2009)

Legend:
[1] = system: CLP; test: Single cell culture of TLR ligand pre-treated CLP on OP9 stromal cells; assay type: cell-based, mouse; conditions: 24 h pre-treatment, 10 days on OP9
Procedure: FIG. 7—Altered differentiation patterns of single lymphoid progenitors activated via TLRs. Sorted CLP were cultured in the presence of SCF, FL and IL-7 with medium alone, LPS (10 μg/ml) or Pam3CSK4 (1 μg/ml). After 24 h, cultured cells were harvested and washed three times with medium. Single cultured cells were then sorted and re-cultured on OP9 stromal cells in 96-well plates for 10 days in the presence of SCF, FL and IL-7. Positive colonies were examined by flow cytometry (representative examples shown on top row). The frequencies of wells with each of these differentiation patterns are shown along with total numbers of clones observed.
Single cell culture on OP9 stromal cells. Sorted CLP were cultured with X-VIVO15in the presence of SCF (20 ng/ml), FL (100 ng/ml) and IL-7 (1 ng/ml) with or without LPS (10 μg/ml), or Pam3CSK4 (1 μg/ml). After 24 h, cultured cells were harvested and washed with medium three times. A single cell sorting for the cultured cells was then conducted on a FACSAria™ and a single cell was plated on OP9 stromal cells in 96-well plate and cultured for 10 days in the presence of SCF (20 ng/ml), FL (100 ng/ml) and IL-7 (1 ng/ml). […] Positive wells (more than 30 cells) were determined by microscopic observation. Cells were harvested and then stained with mAbs to CD19, CD11c, and Mac-1 and analyzed by flow cytometry. […]

[2] = system: LKS^− cells; test: Serum-free culture of LKS- myeloid/erythroid progenitors (and CMP, GMP subsets), F4/80 by flow cytometry; assay type: cell-based, mouse; conditions: 72 h, compared with CSF stimulation
Procedure: FIGS. 4A-D—Activation of TLRs through MyD88 bypasses normal differentiation cues and drives monocytes/macrophages differentiation of myeloid progenitors. (FIG. 4A) Sorted LKS^− cells from C57BL/6 or MyD88^−/− mice were stimulated with medium alone, LPS (10 μg/ml), Pam3CSK4 (1 μg/ml), M-CSF, or GM-CSF. After 72 h in culture, cells were analyzed by flow cytometry for expression of F4/80. Open histograms depict staining with the isotype matched Ab for F4/80. Percentages given in each histogram indicate the frequencies of F4/80^+ cells and the results are representative of three independent experiments. (FIG. 4B) The bar graph depicts yields, i.e., numbers of F4/80^+ cell recovered per input progenitor. Data represent mean values with standard deviations from triplicate cultures and the results are representative of three independent experiments (*P<0.005). […] After 72 h in culture, cells were analyzed by flow cytometry for expression of F4/80. […] After 24 or 48 h in culture, cells were analyzed by flow cytometry for expression of F4/80. […]
FIG. 13—TLR stimulation causes rapid production of F4/80^+ cells from LKS^− cells. […] Stimulated wells were analyzed after 24 h or 48 h of culture by flow cytometry for expression of F4/80. […]

## Pam3CSK4
[1]
  Numbers of pure CD19+ B cell clones: did not alter the production of CD19^+ B cell clones
  Numbers of pure mDC colonies: enhanced production of colonies with pure mDC
[2]
  Yields of F4/80+ cells from LKS- cells: consistently a less potent stimulus
